“Also recorded” adds a separate entry of the source.
What was measured:
IAR20 PC1 cells [1] = test: Factor-based classification of cell shape phenotype from interference contours (predicted time in culture); set-up: species or system rat; conditions: for shift of signature-type (mean predicted time) versus control, in words / mean predicted time (signature-type, factor-based classification): 2 hr exposure; for shift of signature-type (mean predicted time) versus control, in words: taxanes 6–18 μM, baccatin III 9 μM, colchicine 2 μM; for factors used in classification whose values changed significantly: 2 h exposure; for mean predicted time (signature-type, factor-based classification): FIG. 1 experiment, 2 μM colchicine, 18 μM paclitaxel, 10 μM valinomycin, 0.5 μM gramicidin D, 200 μM quinidine, control 283 days; for factor #12 value (slope at which cell rises from substratum, rounding-up): versus control / direction relative to signature-type
Method: (§1) Cell lines and interference preparations. Equations were developed to define changes in the signature-type for two epithelial cell lines that underwent transformation over a prolonged time of in vivo culture. […] IAR20 PC1 was a clonal derivative of a line called IAR20, which was cultured from liver cells of a BD-VI rat. […] Liver cells were grown in William's E medium supplemented with 10% fetal bovine serum, whereas the tracheal cells were grown in Waymouth's medium containing fetal bovine serum plus 0.1 μg/ml insulin and 0.1 μg /ml hydrocortisone. The cells were maintained and subcultured as described elsewhere (1,3). For experiments with insulin supplementation, insulin concentrations were raised to 1 and 10 μg/ml and maintained for two passages before the cells were used.
Information about shape features was derived from interference images. These were generated by culturing cells on anodized tantalum substrates, and then imaging them in reflected light. Cells were plated on substrates in replicate dishes, left overnight, and then exposed to experimental agents or to the solvent vehicle alone. After incubation with the agents for 2–5 h, samples were recovered, fixed in buffered 3% glutaraldehyde (pH 7.3), and air-dried. Randomly selected cells were imaged in a Zeiss Universal microscope, and the outlines of their three lowermost interference contours were digitized. […] Each experimental treatment was represented by a total of 50 cells.
(§2) Classification procedures. The classification methods employed a subset of the contour shape variables. Each 50-cell sample was submitted to multiple linear regression analysis for classification alongside a group of cells representing normal and transformed reference samples. The latter were obtained from the lines that underwent transformation as described above. Because the signature-type value was assigned relative to these samples, the solutions were in units of predicted time in culture. After obtaining such a value for each cell in an experiment, the differences in mean predicted times for treated and control cells were calculated. The sum of the squared standard deviations, divided by the number of observations, n, was used to compute the confidence limits of the mean: (s1)^2/n+(s2)^2/n Where s was the standard deviation for each sample. Dividing the difference between the means by the square root of the above expression yields a value that can be related to the degree of confidence, 1-α. […] This value was equivalent to a probability that the two samples differed of P≦0.02.
(§3) Again, classification of samples from experiments employed multiple linear regression methods, based on factors scores rather than on contour shape variables. Factors were generated by combining into a single database, the contour shape variables from highly malignant epithelial cells and precancerous lines that change progressively, eventually become neoplastic. […] Principal components were extracted and transformed by a pattern of rotation to produce latent factors, which described variances that had thereby been rendered orthogonal (8). Factor scores for each cell represented in the database to be estimated. These factor scores from known IAR20 PC1 or 1000 W cells are used as a reference to classify data from short-term experiments on the respective samples. The factors used in classification were selected by the SAS REG procedure (8). […] Predicted time-in-culture values were obtained by submitting the experimental cells to analysis, as described above for simple variables. The statistical significance of differences among sample means within each experiment was determined by the Duncan multiple range test.

1000 W cells = test: as above; set-up: species or system rat; conditions: for predicted time (factor-based classification): time zero 612 days; for number of the eight contour shape variables highly correlated with factor #4 that changed significantly: 1000 W cells, FIG. 7—Table 3; for change of signature-type versus control, in words: paclitaxel 2-h or 5 h exposure, insulin 0.1–10 μg/ml
Method: as §1, with “Equations were developed to define changes in the signature-type for two epithelial cell lines that underwent transformation over a prolonged time of in vivo culture.” left out
Information about shape features was derived from interference images. These were generated by culturing cells on anodized tantalum substrates, and then imaging them in reflected light. Cells were plated on substrates in replicate dishes, left overnight, and then exposed to experimental agents or to the solvent vehicle alone. […] Randomly selected cells were imaged in a Zeiss Universal microscope, and the outlines of their three lowermost interference contours were digitized. […] Each experimental treatment was represented by a total of 50 cells.
as §2, §3

IAR20 PC1 cells [2] = test: Indirect immunofluorescence localization of beta-tubulin (microtubule organization); format: cell-based, rat; conditions: for MT organization / arrangement, in words: exposure 2–5 h; for cells with MT bundles on both sides of the nucleus: taxane alone or IC with 2 μM colchicine
Method: Immunofluorescene localization of β-tubulin. IAR20 PC1 cells were subcultured onto sterile glass cover slips as described above. Replicate samples were exposed to test agents for 2–5 h alongside controls, and then fixed and left in methanol at −70° C. until used for the immunofluorescence procedure. To visualize arrays of MTs, cells were exposed to a mouse monoclonal anti-β tubulin antibody (Nycomed Amersham, Little Chalfont, Buckinghamshire, UK), made up at a 1:300 dilution. We used a 1:100 dilution of P3×63 monoclonal antibody from P3 myeloma (generous gift from J. Lessard) as a non-specific control. The secondary antibody, […] goat anti-mouse immunoglobulin G (US Biochemical Corp., Cleveland), was used at a dilution of 1:2000. Cover slips were processed and then mounted on a slide in a solution of 1,4-diazobicyclo[2.2.2]octane (Sigma) made up to 25 mg/ml in glycerol. The samples were photographed on a Zeiss Axiophot microscope equipped with a 63x Planapo lens. Images were recorded on Kodak Tri-X or T-Max film. All of the drugs, including paclitaxel, cephalomannine, colchicine, and baccatin III, were studied to see if they affected the arrangement of MTs. […] MT arrangement was unaltered after treatment with the above-mentioned ionophores and transport inhibitors.

CC(=O)O[C@H]1C(=O)[C@]2(C)CC[C@H]3OC[C@@]3(OC(C)=O)[C@H]2[C@H](OC(=O)c2ccccc2)[C@]2(O)C[C@H](OC(=O)[C@H](O)[C@@H](NC(=O)c3ccccc3)c3ccccc3)C(C)=C1C2(C)C [7-deoxytaxol]
shift of signature-type (mean predicted time) versus control, in words (IAR20 PC1 cells [1]): failed to shift

CCCCCCCCCCCCCC(=O)O[C@@H]1[C@@H](C)[C@@]2(O)[C@@H](C=C(CO)C[C@]3(O)C(=O)C(C)=C[C@@H]23)[C@@H]2C(C)(C)[C@]12OC(C)=O [PMA, phorbol 12-myristate 13-acetate]
predicted time (factor-based classification) (1000 W cells; 30 min after PMA exposure): 648 days | predicted time (factor-based classification) (1000 W cells; 2 h after PMA exposure): 663 days | predicted time (factor-based classification) (1000 W cells; 5 h after PMA exposure): 668 days | predicted time (factor-based classification) (1000 W cells; 10 h after PMA exposure): 604 days | factor #1 value (1000 W cells; PMA time course): significantly elevated for a brief period after exposure | factor #2 value (1000 W cells; PMA, 10-h time point): significantly reduced below control | factor #7 value (knob-shaped projections on the cell edge) (1000 W cells; PMA, one experiment): adopted values like those of transformed cells | factor #16 value (size variability in projections at the cell edge) (1000 W cells; PMA, one experiment): adopted values like those of transformed cells | factor #4 value (1000 W cells; PMA, times between 0.5 and 5 h): indistinguishable from those of control samples | factor #12 value (1000 W cells; PMA, times between 0.5 and 5 h): indistinguishable from those of control samples

CC(=O)O[C@H]1C(=O)[C@@]2(C)[C@H]([C@H](OC(=O)c3ccccc3)[C@]3(O)C[C@H](O)C(C)=C1C3(C)C)[C@]1(OC(C)=O)CO[C@@H]1C[C@@H]2O [baccatin III, Baccatin III]
shift of signature-type (mean predicted time) versus control, in words (IAR20 PC1 cells [1]): failed to shift | MT organization / arrangement, in words (IAR20 PC1 cells [2]): little noticeable effect

C/C=C(\C)C(=O)N[C@@H](c1ccccc1)[C@@H](O)C(=O)O[C@H]1C[C@@]2(O)[C@@H](OC(=O)c3ccccc3)[C@@H]3[C@]4(OC(C)=O)CO[C@@H]4C[C@H](O)[C@@]3(C)C(=O)[C@H](OC(C)=O)C(=C1C)C2(C)C [cephalomannine]
shift of signature-type (mean predicted time) versus control, in words (IAR20 PC1 cells [1]): failed to shift | MT organization / arrangement, in words (IAR20 PC1 cells [2]): caused MTs to aggregate in the form of arc-shaped bundles | cells with MT bundles on both sides of the nucleus (IAR20 PC1 cells [2]): 71%

CCN(CC)CCCC(C)Nc1ccnc2cc(Cl)ccc12 (stereo not drawn) [chloroquine]
factors used in classification whose values changed significantly (IAR20 PC1 cells [1]): did not significantly change any of the factors | mean predicted time (signature-type, factor-based classification) (IAR20 PC1 cells [1]): 315 days

COc1cc2c(c(OC)c1OC)-c1ccc(OC)c(=O)cc1[C@@H](NC(C)=O)CC2 [colchicine]
mean predicted time (signature-type, factor-based classification) (IAR20 PC1 cells [1]): 338 days | factor #4 value (filopodia / sharp projections at cell edge) (IAR20 PC1 cells [1]; versus control): decreased | factor #7 value (knob-like structures at the cell edge) (IAR20 PC1 cells [1]; versus control): increased | factor #12 value (slope at which cell rises from substratum, rounding-up) (IAR20 PC1 cells [1]): mimicked; also recorded: increased | mean predicted time (1000 W cells; 2 μM colchicine for 2 hrs, cells grown in 0.1 μg/ml insulin, untreated 655 days): 737 days | mean predicted time (1000 W cells; 2 μM colchicine for 2 hrs, cells grown in 1 μg/ml insulin, untreated 638 days): 687 days | mean predicted time (1000 W cells; 2 μM colchicine for 2 hrs, cells grown in 10 μg/ml insulin, untreated 637 days): 673 days | factor #1 value (massive extensions or invaginations in the two uppermost contours) (1000 W cells; colchicine exposure): increased | average solution of predicted time (1000 W cells; second experiment, colchicine-treated sample, control 636 days): 689 days | MT organization / arrangement, in words (IAR20 PC1 cells [2]): complete depolymerization of MTs

CC(=O)O[C@H]1C(=O)[C@@]2(C)[C@H]([C@H](OC(=O)c3ccccc3)[C@]3(O)C[C@H](OC(=O)[C@H](O)[C@@H](NC(=O)c4ccccc4)c4ccccc4)C(C)=C1C3(C)C)[C@]1(OC(C)=O)CO[C@@H]1C[C@@H]2O [paclitaxel]
factors used in classification whose values changed significantly (IAR20 PC1 cells [1]): changes in factors #1, #7, and #12 | shift of signature-type (mean predicted time) versus control, in words (IAR20 PC1 cells [1]): failed to promote the signature-type | mean predicted time (signature-type, factor-based classification) (IAR20 PC1 cells [1]): 304 days | factors whose values changed (IAR20 PC1 cells [1]; paclitaxel at a high concentration over a 4-h period): changes in #1, #7, #8, and #13 | factor #12 value (slope at which cell rises from substratum, rounding-up) (IAR20 PC1 cells [1]): counteracted | number of the eight contour shape variables highly correlated with factor #4 that changed significantly (1000 W cells): six of their values differed significantly | number of the eight contour shape variables highly correlated with factor #4 that changed significantly (1000 W cells; listed as Paclitaxel): six out of the eight | change of signature-type versus control, in words (1000 W cells): failed to elicit any change | MT organization / arrangement, in words (IAR20 PC1 cells [2]): large bundles of MTs | cells with MT bundles on both sides of the nucleus (IAR20 PC1 cells [2]): 56%

CC(C)[C@@H]1NC(=O)[C@H](C)OC(=O)[C@@H](C(C)C)NC(=O)[C@@H](C(C)C)OC(=O)[C@H](C(C)C)NC(=O)[C@H](C)OC(=O)[C@@H](C(C)C)NC(=O)[C@@H](C(C)C)OC(=O)[C@H](C(C)C)NC(=O)[C@H](C)OC(=O)[C@@H](C(C)C)NC(=O)[C@@H](C(C)C)OC1=O [valinomycin]
mean predicted time (signature-type, factor-based classification) (IAR20 PC1 cells [1]): 336 days | factor #4 value (filopodia / sharp projections at cell edge) (IAR20 PC1 cells [1]; versus control): change in factor #4 | factor #8 value (sharp features in the second contour) (IAR20 PC1 cells [1]; versus control, monensin 24 μM): affected

gramicidin D
mean predicted time (signature-type, factor-based classification) (IAR20 PC1 cells [1]): 387 days | factor #4 value (filopodia / sharp projections at cell edge) (IAR20 PC1 cells [1]; versus control): change in factor #4 | factor #7 value (knob-like structures at the cell edge) (IAR20 PC1 cells [1]; versus control): increase

insulin
mean predicted time (1000 W cells; grown in 0.1 μg/ml insulin, no colchicine): 655 days | mean predicted time (1000 W cells; grown in 1 μg/ml insulin, no colchicine): 638 days | mean predicted time (1000 W cells; grown in 10 μg/ml insulin, no colchicine): 637 days | change of signature-type versus control, in words (1000 W cells): no significant differences

Source: patent US7050620B2, “Method of assaying shape and structural features in cells” (priority 2001, dated 2006)
